In the supplement of paper PMC4932681:
Structures can show the parent of a compound that is named as a salt.

Legend:
Experiment in all cases: viability inhibition at highest dose (% inhibition); higher = more growth inhibition
[1] = tested on: MCF-7; settings: 72 h
Method: (§1)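 Percent inhibition of viability (CellTiter-Glo, 72 h) at the highest tested concentration (D5), normalised to DMSO (0%) and 100 µM benzethonium chloride (100%). Resistant lines and the 'in 1µM tamoxifen' arms were tested in 1 µM 4-OH-tamoxifen.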

[2] = tested on: T-47D Tam2; settings: 4-OH-tamoxifen in medium 1 µM; 72 h
Method: as §1

[3] = tested on: BT-474; settings: 72 h
Method: as §1

[4] = tested on: MCF-7 Tam1; settings: 4-OH-tamoxifen in medium 1 µM; 72 h
Method: as §1

[5] = tested on: ZR-75-1 Tam1; settings: 4-OH-tamoxifen in medium 1 µM; 72 h
Method: as §1

[6] = tested on: T-47D Tam1; settings: 4-OH-tamoxifen in medium 1 µM; 72 h
Method: as §1

[7] = tested on: BT-474 Tam1; settings: 4-OH-tamoxifen in medium 1 µM; 72 h
Method: as §1

[8] = tested on: T-47D; settings: 72 h
Method: as §1

[9] = tested on: BT-474 Tam2; settings: 4-OH-tamoxifen in medium 1 µM; 72 h
Method: as §1

[10] = tested on: ZR-75-1 Tam2; settings: 4-OH-tamoxifen in medium 1 µM; 72 h
Method: as §1

[11] = tested on: ZR-75-1; settings: 72 h
Method: as §1

SMILES	viability inhibition at highest dose ([1]; 4-OH-tamoxifen in medium 0 µM)	viability inhibition at highest dose ([1]; 4-OH-tamoxifen in medium 1 µM)	viability inhibition at highest dose [2]	viability inhibition at highest dose ([3]; 4-OH-tamoxifen in medium 0 µM)	viability inhibition at highest dose ([3]; 4-OH-tamoxifen in medium 1 µM)	viability inhibition at highest dose [4]	viability inhibition at highest dose [5]	viability inhibition at highest dose [6]	viability inhibition at highest dose [7]	viability inhibition at highest dose ([8]; 4-OH-tamoxifen in medium 0 µM)	viability inhibition at highest dose ([8]; 4-OH-tamoxifen in medium 1 µM)	viability inhibition at highest dose [9]	viability inhibition at highest dose [10]	viability inhibition at highest dose ([11]; 4-OH-tamoxifen in medium 0 µM)	viability inhibition at highest dose ([11]; 4-OH-tamoxifen in medium 1 µM)
CC/C(=C(\c1ccc(O)cc1)c1ccc(OCCN(C)C)cc1)c1ccccc1 [4-hydroxytamoxifen] (drug 10000 nM)	52.3	83.1	79.7	23.3	97.2	46.3	17.8	38.4	97.8	20.4	59	96	21.5	8.03	33.1
CC(C)n1cnc2c(NCCc3ccc(O)cc3)nc(-c3csc4ccccc34)nc21 [StemRegenin 1] (drug 10000 nM)	51.4	65.3	54.1	25.1	96.4	18.6	19.8	41.9	95.2	35.4	50.4	89	24.2	8.1	26.6
C[C@@]1(C(=O)Nc2ccc(F)nc2)CCCN1c1nc(Nc2cc(C3CC3)n[nH]2)c2cccn2n1 (drug 10000 nM)	67.7	81.4	59.2	13	23.1	68.9	-16.4	46.5	15.1	48.6	41.9	6.42	-9.78	-26.3	-1.41
CC/C(=C(\c1ccccc1)c1ccc(OCCN(C)C)cc1)c1ccccc1 [Tamoxifen citrate] (drug 10000 nM)	10.6	78.6	50	35.7	91.4	28.6	17.8	15.1	95.3	4.58	10.2	93.8	26.3	9.17	38.8
COC1=CC(c2cc3ccccc3[nH]2)=N/C1=C\c1[nH]c(C)cc1C [Obatoclax (GX15-070)] (drug 10000 nM)	45.6	75.8	36.8	68.9	18.9	51.1	23.7	67.3	36.3	47	44.1	86.7	50.8	32.5	31.2
C[C@]12CC[C@@H]3c4ccc(O)cc4C[C@@H](CCCCCCCCC[S+]([O-])CCCC(F)(F)C(F)(F)F)[C@H]3[C@@H]1CC[C@@H]2O (stereo not given in full) [Fulvestrant] (drug 1000 nM)	31.4	17.5	8.69	-5.27	-0.276	-0.218	-1.86	12.9	-6.25	1.98	-1.62	4.97	-6.33	-18.5	-4.88
COc1cc(Nc2c(C#N)cnc3cc(OCCCN4CCN(C)CC4)c(OC)cc23)c(Cl)cc1Cl [Bosutinib] (drug 10000 nM)	81.6	78.4	77.5	83.1	95	50.7	22.6	72	96.4	41.6	66.7	95	57.5	17.9	28.8
CCC1=C[C@@H]2CN(C1)Cc1c([nH]c3ccccc13)[C@@](C(=O)OC)(c1cc3c(cc1OC)N(C)[C@H]1[C@@](O)(C(=O)OC)[C@H](OC(C)=O)[C@]4(CC)C=CCN5CC[C@]31[C@@H]54)C2 [Vinorelbine (tartrate)] (drug 10000 nM)	49.1	55.8	63	46.9	94	6.83	29.4	59.6	95.6	6.97	31.1	93.8	29.9	26.2	36.3
Cc1ccc(F)c(NC(=O)Nc2ccc(-c3cccc4[nH]nc(N)c34)cc2)c1 [Linifanib (ABT-869)] (drug 1000 nM)	-7.63	4.89	-13.7	-5.83	-19	-5.44	-5.49	5.32	-15	-7.82	-2.26	-11.2	-0.131	-3.03	-10.3
Cn1cc(CNCC2CCN(c3ncc(C(=O)NO)cn3)CC2)c2ccccc21 (drug 1000 nM)	89.3	90	71.1	88.3	94.3	21.6	37.4	86.6	83.8	94.3	94.1	74.7	48.7	47.6	37.9
Cc1cc(C(C)Nc2ccccc2)c2nc(N3CCOCC3)cc(=O)n2c1 (stereo not given) [TGX-221] (drug 10000 nM)	21.3	25.4	15.9	9.95	25.3	9.33	49	12.4	29	8.41	24.1	42.5	51.8	52	45.3
C=CC(=O)N1CCC[C@@H](n2nc(-c3ccc(Oc4ccccc4)cc3)c3c(N)ncnc32)C1 (drug 1000 nM)	-5.41	23	14.1	69.5	94.6	-17.1	1.82	19.8	98.2	-1.5	-2.82	96.5	5.37	7.99	7.55
COc1cc2nccc(Oc3ccc(NC(=O)C4(C(=O)Nc5ccc(F)cc5)CC4)cc3)c2cc1OC [Cabozantinib (XL184)] (drug 1000 nM)	5.85	11.3	10.4	-10.4	16	1.76	6.25	2.69	22.4	-4.29	-1.77	7.72	2.11	-14.6	-2.98
Cc1ccc(-n2nc(C(C)(C)C)cc2NC(=O)Nc2ccc(OCCN3CCOCC3)c3ccccc23)cc1 [Doramapimod (BIRB 796)] (drug 10000 nM)	17.6	19.3	17	3.99	15	9.34	1.82	-1.73	21	6.71	-2.59	-5.97	2.11	-1.07	0.647
COc1cc(Nc2ncc(F)c(Nc3ccc4c(n3)N(COP(=O)(O)O)C(=O)C(C)(C)O4)n2)cc(OC)c1OC (drug 10000 nM)	34.7	70.4	47.1	-18	41.4	47.8	28.5	49.3	55.4	40.2	36.8	2.03	31.6	7.12	20.8
O=C(/C=C/c1cccc(S(=O)(=O)Nc2ccccc2)c1)NO [Belinostat  (PXD101)] (drug 10000 nM)	89.5	86.8	70.4	91.3	97.1	22.8	39.5	92	89	95.6	94.8	77.2	51.5	38.9	38.7
C[C@]12C=CC(=O)C=C1CC[C@@H]1[C@@H]2[C@@H](O)C[C@@]2(C)[C@H]1CC[C@]2(O)C(=O)CO [Prednisolone] (drug 10000 nM)	12	17.2	6.88	-0.102	-6.44	0.119	-0.584	2	-1.37	-5.27	-8.96	-3.77	9.43	-7.97	0.573
CC(C)C[C@@H](C(=O)N[C@H](C(=O)OC1CCCC1)c1ccccc1)[C@H](O)C(=O)NO [Tosedostat (CHR 2797)] (drug 10000 nM)	40.5	38.1	48.2	19	54.7	14.2	30	46.1	34.7	33.3	15.7	28.5	37	22.3	28.8
Cc1ccc(NC(=O)c2ccc(CN3CCN(C)CC3)cc2)cc1Nc1nc(-c2cccnc2)cs1 [Masitinib] (drug 10000 nM)	39.5	40.7	40.7	21.2	71.6	26.5	18.2	34.5	93.1	42	57.1	87	32.8	9.35	20.3
CCCS(=O)(=O)Nc1ccc(F)c(C(=O)c2c[nH]c3ncc(-c4ccc(Cl)cc4)cc23)c1F [Vemurafenib (PLX4032)] (drug 10000 nM)	7.54	-8.65	21.7	-0.692	16.2	3.76	8.49	-8.15	-8.2	-10.9	17.5	-15	0.975	-0.616	10.2
CS(=O)(=O)CCNCc1ccc(-c2ccc3ncnc(Nc4ccc(OCc5cccc(F)c5)c(Cl)c4)c3c2)o1 [Lapatinib] (drug 1000 nM)	6.77	17.5	16.8	76.6	95.8	0.111	5.35	14.6	96.8	5.41	-0.526	96.2	-5.73	0.392	-2.73
CC[C@H](Nc1ncnc2[nH]cnc12)c1nc2cccc(F)c2c(=O)n1-c1ccccc1 [CAL-101] (drug 10000 nM)	22.4	21.3	33.6	4.44	17	-0.638	50.8	24.5	8.87	15.2	13.7	5.84	57.3	45.9	45
COc1c(C)cnc(Cn2cnc3c(Cl)nc(N)nc32)c1C [BIIB021] (drug 10000 nM)	56.8	45.6	50	48.2	70.8	26.1	36.3	46	72.2	65.4	51.5	70.9	39.3	32.2	34.3
CCNC(=O)c1noc(-c2cc(C(C)C)c(O)cc2O)c1-c1ccc(CN2CCOCC2)cc1 [NVP-AUY922] (drug 1000 nM)	61.6	46.1	55	48.6	78	24.1	28.5	49.8	75.2	68.8	55.5	65.7	44.4	34.2	42.6
CC1(C)CCC(c2ccc(Cl)cc2)=C(CN2CCN(c3ccc(C(=O)NS(=O)(=O)c4ccc(N[C@H](CCN5CCOCC5)CSc5ccccc5)c(S(=O)(=O)C(F)(F)F)c4)cc3)CC2)C1 [Navitoclax (ABT-263)] (drug 10000 nM)	27	14.2	23.7	6.74	47.7	5	-1.41	38.4	33.3	0.832	3.74	32.7	-6.95	-9.03	-6.23
CC[C@@]1(O)C(=O)OCc2c1cc1n(c2=O)Cc2cc3ccccc3nc2-1 [Camptothecin] (drug 5000 nM)	85.5	87.2	35.6	-9.54	0.861	49.1	54.1	49.6	4.82	61	28.7	-15.3	57.9	52.9	41.1
